Assay results reported in ChEMBL document CHEMBL3865849, “Development of N-(4-Phenoxyphenyl)benzenesulfonamide Derivatives as Novel Nonsteroidal Progesterone Receptor Antagonists” (ACS Med Chem Lett, 2016).
Calls of active or inactive are those of the source. No cut-off for these calls is given here.

These compounds were tested against T1, Glucocorticoid receptor (Homo sapiens, UniProt P04150) (assay: Antagonist activity at human glucocorticoid receptor-alpha expressed in HEK293 cells measured after 24 hrs by luciferase reporter gene assay).
T1 sequence (P04150 whole entry): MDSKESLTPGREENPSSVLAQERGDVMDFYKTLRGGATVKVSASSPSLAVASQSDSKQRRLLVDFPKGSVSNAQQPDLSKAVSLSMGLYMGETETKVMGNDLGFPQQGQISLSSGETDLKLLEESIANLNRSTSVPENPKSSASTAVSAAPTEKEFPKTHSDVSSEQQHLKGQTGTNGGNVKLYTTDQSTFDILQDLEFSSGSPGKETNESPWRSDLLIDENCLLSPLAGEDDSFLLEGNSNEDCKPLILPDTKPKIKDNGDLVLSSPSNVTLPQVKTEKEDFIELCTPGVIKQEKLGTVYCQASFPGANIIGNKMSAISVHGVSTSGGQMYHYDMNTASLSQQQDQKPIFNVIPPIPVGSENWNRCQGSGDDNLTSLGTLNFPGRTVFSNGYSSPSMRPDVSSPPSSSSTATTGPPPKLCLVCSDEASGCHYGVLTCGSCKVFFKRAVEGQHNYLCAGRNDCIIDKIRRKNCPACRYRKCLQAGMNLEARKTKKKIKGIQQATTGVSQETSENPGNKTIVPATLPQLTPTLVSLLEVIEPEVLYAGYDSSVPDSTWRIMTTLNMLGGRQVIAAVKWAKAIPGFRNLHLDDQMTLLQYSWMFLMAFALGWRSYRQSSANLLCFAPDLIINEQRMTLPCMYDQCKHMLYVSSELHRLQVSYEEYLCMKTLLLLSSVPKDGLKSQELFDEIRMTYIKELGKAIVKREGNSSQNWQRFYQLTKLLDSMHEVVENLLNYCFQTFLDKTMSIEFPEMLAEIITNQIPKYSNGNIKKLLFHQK
Format: cell-based

| Structure (SMILES) | IC50 |
| --- | --- |
| O=S(=O)(Nc1ccc(Oc2ccccc2)cc1)c1cccc(C(F)(F)F)c1 | 12000 nM |

Each compound was assayed against T2, Estrogen receptor (Homo sapiens, UniProt P03372) (assay: Antagonist activity at human Gal4-tagged estrogen receptor-alpha LBD expressed in HEK293 cells measured after 24 hrs by luciferase reporter gene assay).
T2 sequence (P03372 whole entry): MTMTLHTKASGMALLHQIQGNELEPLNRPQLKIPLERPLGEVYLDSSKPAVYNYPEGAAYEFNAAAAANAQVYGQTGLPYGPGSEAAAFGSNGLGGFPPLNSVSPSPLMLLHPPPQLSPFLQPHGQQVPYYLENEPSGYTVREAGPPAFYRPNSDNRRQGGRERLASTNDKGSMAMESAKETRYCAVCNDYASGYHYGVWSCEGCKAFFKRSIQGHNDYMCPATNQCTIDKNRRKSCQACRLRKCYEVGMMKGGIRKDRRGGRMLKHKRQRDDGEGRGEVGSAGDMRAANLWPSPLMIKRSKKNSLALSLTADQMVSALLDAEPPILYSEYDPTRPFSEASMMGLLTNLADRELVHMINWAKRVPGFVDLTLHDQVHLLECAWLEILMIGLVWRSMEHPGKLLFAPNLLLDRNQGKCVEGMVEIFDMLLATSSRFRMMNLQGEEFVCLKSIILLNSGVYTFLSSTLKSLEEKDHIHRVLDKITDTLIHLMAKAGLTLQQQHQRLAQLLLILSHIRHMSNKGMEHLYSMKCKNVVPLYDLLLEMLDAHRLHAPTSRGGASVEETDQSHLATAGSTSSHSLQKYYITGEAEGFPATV
Format: cell-based

| Structure (SMILES) | IC50 |
| --- | --- |
| O=S(=O)(Nc1ccc(Oc2ccccc2)cc1)c1cccc(C(F)(F)F)c1 | > 30000 nM |

These compounds were tested against T3, Progesterone receptor (Homo sapiens, UniProt P06401) (assay: Displacement of [1,2,6,7-3H]-PG from recombinant human GST-tagged PR-LBD (657 to 933 residues) expressed in baculovirus infected insect cells measured after 24 hrs by liquid scintillation counting method).
T3 sequence (P06401 whole entry): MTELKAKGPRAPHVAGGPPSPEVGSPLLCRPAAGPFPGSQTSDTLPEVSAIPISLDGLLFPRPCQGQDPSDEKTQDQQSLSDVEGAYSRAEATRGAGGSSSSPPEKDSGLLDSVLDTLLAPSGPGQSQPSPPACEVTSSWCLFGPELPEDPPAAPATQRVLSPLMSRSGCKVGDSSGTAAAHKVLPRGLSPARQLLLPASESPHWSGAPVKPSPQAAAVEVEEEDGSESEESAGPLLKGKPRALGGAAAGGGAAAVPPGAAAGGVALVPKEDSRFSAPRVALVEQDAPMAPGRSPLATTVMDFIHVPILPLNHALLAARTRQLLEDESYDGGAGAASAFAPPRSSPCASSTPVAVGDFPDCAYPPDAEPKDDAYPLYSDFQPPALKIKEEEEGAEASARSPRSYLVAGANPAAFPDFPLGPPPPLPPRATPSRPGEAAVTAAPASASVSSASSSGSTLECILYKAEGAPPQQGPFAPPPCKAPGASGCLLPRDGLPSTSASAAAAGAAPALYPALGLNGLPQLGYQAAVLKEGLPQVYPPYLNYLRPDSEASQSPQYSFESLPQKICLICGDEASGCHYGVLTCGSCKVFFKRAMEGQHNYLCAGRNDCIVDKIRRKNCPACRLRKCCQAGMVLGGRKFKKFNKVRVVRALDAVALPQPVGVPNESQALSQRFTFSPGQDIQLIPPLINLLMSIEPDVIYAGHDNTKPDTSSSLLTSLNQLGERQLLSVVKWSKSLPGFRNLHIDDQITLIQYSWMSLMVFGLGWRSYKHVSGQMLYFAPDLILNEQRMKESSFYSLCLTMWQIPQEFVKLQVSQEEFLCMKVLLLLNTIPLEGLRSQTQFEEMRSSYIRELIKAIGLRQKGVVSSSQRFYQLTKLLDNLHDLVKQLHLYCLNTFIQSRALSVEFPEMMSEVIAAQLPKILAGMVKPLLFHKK

| Structure (SMILES) | IC50 |
| --- | --- |
| O=S(=O)(Nc1ccc(Oc2ccccc2)cc1)c1cccc(Br)c1 | 47 nM |
| O=[N+]([O-])c1cccc(S(=O)(=O)Nc2ccc(Oc3ccccc3)cc2)c1 | 140 nM |
| O=C(c1ccccc1)c1ccc(NS(=O)(=O)c2cccc(Cl)c2)cc1 | > 10000 nM |
| O=S(=O)(Nc1ccc(Oc2ccccc2)cc1)c1cccc(C(F)(F)F)c1 | 40 nM |
| O=S(=O)(Nc1ccc(Oc2ccccc2)cc1)c1cccc(F)c1 | 310 nM |
| O=S(=O)(Nc1ccc(Oc2ccccc2)cc1)c1cccc(Cl)c1 | 62 nM |
| O=S(=O)(Nc1ccc(-c2ccccc2)cc1)c1cccc(Cl)c1 | 110 nM |

Each compound was assayed against T4, Progesterone receptor (Homo sapiens) (UniProt P06401) (assay: Antagonist activity at progesterone receptor in human T47D cells assessed as suppression of P4-induced Na/K-ATPase-beta1 expression level at 1 and 10 uM measured after 16 hrs by Western blot analysis).
T4 sequence (whole entry): T3 sequence (P06401 whole entry)
Format: cell-based

| Structure (SMILES) | inhibition |
| --- | --- |
| O=S(=O)(Nc1ccc(Oc2ccccc2)cc1)c1cccc(C(F)(F)F)c1 | Active |

What follows are compounds tested against T3, Progesterone receptor (assay: Antagonist activity at progesterone receptor in human T47D cells incubated for 24 hrs in presence of P4 by alkaline phosphatase assay).
Format: cell-based

| Structure (SMILES) | IC50 |
| --- | --- |
| COc1cccc(Oc2ccc(NS(=O)(=O)c3cccc(OC)c3)cc2)c1 | 370 nM |
| O=S(=O)(Nc1ccc(Oc2ccccc2)cc1)c1cccc(Cl)c1Cl | 640 nM |
| COc1cccc(C(=O)Nc2ccc(Oc3ccc(O)cc3)c(C)c2)c1 | 5000 nM |
| O=S(=O)(c1cccc(Cl)c1)N(Cc1ccccc1)c1ccc(Oc2ccccc2)cc1 | 2200 nM |
| COc1cccc(S(=O)(=O)N(C)c2ccc(Oc3ccccc3)cc2)c1 | 470 nM |
| CN(c1ccc(Oc2ccccc2)cc1)S(=O)(=O)c1ccc(Cl)cc1 | 960 nM |
| O=S(=O)(Nc1ccc(Oc2ccccc2)cc1)c1cccc(Br)c1 | 110 nM |
| O=S(=O)(c1ccccc1Cl)N(Cc1ccccc1)c1ccc(Oc2ccccc2)cc1 | 2200 nM |
| COc1cccc(S(=O)(=O)Nc2ccc(Oc3ccccc3)cc2)c1 | 250 nM |
| O=[N+]([O-])c1cccc(S(=O)(=O)Nc2ccc(Oc3ccccc3)cc2)c1 | 140 nM |
| O=S(=O)(Nc1ccc(Oc2ccccc2)cc1)c1ccc2ccccc2c1 | 1700 nM |
| O=C(c1ccccc1)c1ccc(NS(=O)(=O)c2cccc(Cl)c2)cc1 | 6000 nM |
| COc1ccc(S(=O)(=O)Nc2ccc(Oc3ccccc3)cc2)cc1 | 500 nM |
| O=S(=O)(Nc1ccccc1)c1cccc(Cl)c1 | 1500 nM |
| O=S(=O)(Nc1ccc(Cc2ccccc2)cc1)c1cccc(Cl)c1 | 450 nM |
| COc1cccc(Oc2ccc(NS(=O)(=O)c3cccc(Cl)c3)cc2)c1 | 270 nM |
| Cc1ccc(NS(=O)(=O)c2cccc(Cl)c2)cc1 | 1300 nM |
| O=C(Nc1ccc(Oc2ccccc2)cc1)c1ccccc1 | 2800 nM |
| O=S(=O)(Nc1ccc(Oc2ccccc2)cc1)c1ccc(Cl)cc1 | 670 nM |
| O=S(=O)(c1ccc(Cl)cc1)N(Cc1ccccc1)c1ccc(Oc2ccccc2)cc1 | 3000 nM |
| O=S(=O)(Nc1ccc(Oc2ccccc2)cc1)c1cccc(C(F)(F)F)c1 | 33 nM |
| COc1ccc(NS(=O)(=O)c2cccc(Cl)c2)cc1 | 820 nM |
| O=S(=O)(Nc1ccc(Oc2ccccc2)cc1)c1ccc(Cl)c(Cl)c1 | 410 nM |

| Structure (SMILES) | IC50 |
| --- | --- |
| O=S(=O)(Nc1ccc(Oc2ccccc2)cc1)c1cccc(F)c1 | 220 nM |
| O=S(=O)(Nc1ccc(Br)cc1)c1cccc(Cl)c1 | 1300 nM |
| O=S(=O)(Nc1ccc(Oc2ccccc2)cc1)c1cccc2ccccc12 | 190 nM |
| O=S(=O)(Nc1ccc(Oc2ccccc2)cc1)c1cccc(Cl)c1 | 170 nM |
| CS(=O)(=O)Nc1ccc(Oc2ccccc2)cc1 | 2200 nM |
| COc1ccc(S(=O)(=O)N(Cc2ccccc2)c2ccc(Oc3ccccc3)cc2)cc1 | 3500 nM |
| CN(c1ccc(Oc2ccccc2)cc1)S(=O)(=O)c1ccccc1Cl | 390 nM |
| CC(C)c1ccc(NS(=O)(=O)c2cccc(Cl)c2)cc1 | 510 nM |
| COc1ccc(S(=O)(=O)N(C)c2ccc(Oc3ccccc3)cc2)cc1 | 990 nM |
| O=S(=O)(Nc1ccc(Oc2ccccc2)cc1)c1cc(Cl)c(Cl)cc1Cl | 1600 nM |
| COc1cccc(S(=O)(=O)Nc2ccc(Oc3ccc(O)cc3)c(C)c2)c1 | 2000 nM |
| O=S(=O)(Nc1ccc(Oc2ccccc2)cc1)c1cc(Cl)cc(Cl)c1 | 320 nM |
| O=S(=O)(Cc1ccccc1)Nc1ccc(Oc2ccccc2)cc1 | 1600 nM |
| COc1cccc(S(=O)(=O)N(Cc2ccccc2)c2ccc(Oc3ccccc3)cc2)c1 | 2600 nM |
| COc1cccc(Oc2ccc(NS(=O)(=O)c3ccccc3)cc2)c1 | 490 nM |
| COc1cccc(Oc2ccc(NC(=O)c3ccccc3)cc2)c1 | 3800 nM |
| O=S(=O)(Nc1ccc(Oc2ccccc2)cc1)c1ccccc1Cl | 740 nM |
| O=S(=O)(Nc1ccc(-c2ccccc2)cc1)c1cccc(Cl)c1 | 330 nM |
| O=S(=O)(Nc1ccc(Oc2ccccc2)cc1)c1ccccc1 | 520 nM |
| N#Cc1cccc(S(=O)(=O)Nc2ccc(Oc3ccccc3)cc2)c1 | 300 nM |
| CN(c1ccc(Oc2ccccc2)cc1)S(=O)(=O)c1cccc(Cl)c1 | 650 nM |
| O=S(=O)(Nc1ccc(OCc2ccccc2)cc1)c1cccc(Cl)c1 | 810 nM |

These compounds were tested against Estrogen receptor beta (Homo sapiens, UniProt Q92731) (assay: Antagonist activity at human Gal4-tagged estrogen receptor-beta LBD expressed in HEK293 cells measured after 24 hrs by luciferase reporter gene assay).
Estrogen receptor beta, sequence (Q92731 whole entry, the tested form may be a part): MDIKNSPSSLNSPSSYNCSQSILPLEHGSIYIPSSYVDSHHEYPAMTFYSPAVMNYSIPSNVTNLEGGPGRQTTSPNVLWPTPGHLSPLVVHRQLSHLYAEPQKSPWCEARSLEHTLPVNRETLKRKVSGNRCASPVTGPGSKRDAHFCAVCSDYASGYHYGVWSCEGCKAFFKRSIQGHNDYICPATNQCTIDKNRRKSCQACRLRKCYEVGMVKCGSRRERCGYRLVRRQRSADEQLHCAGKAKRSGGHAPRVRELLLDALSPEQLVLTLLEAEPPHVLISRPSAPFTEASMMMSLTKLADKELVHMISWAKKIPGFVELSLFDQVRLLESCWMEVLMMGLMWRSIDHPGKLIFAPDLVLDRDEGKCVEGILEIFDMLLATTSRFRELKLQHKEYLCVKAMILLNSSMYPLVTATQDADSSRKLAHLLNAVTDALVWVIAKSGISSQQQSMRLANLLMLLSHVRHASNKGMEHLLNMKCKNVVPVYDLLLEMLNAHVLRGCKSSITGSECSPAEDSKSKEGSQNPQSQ
Format: cell-based

| Structure (SMILES) | IC50 |
| --- | --- |
| O=S(=O)(Nc1ccc(Oc2ccccc2)cc1)c1cccc(C(F)(F)F)c1 | 23000 nM |

These compounds were tested against T5, Androgen receptor (Homo sapiens, UniProt P10275) (assay: Antagonist activity at human AR expressed in HEK293 cells measured after 24 hrs by luciferase reporter gene assay).
T5 sequence (P10275 whole entry): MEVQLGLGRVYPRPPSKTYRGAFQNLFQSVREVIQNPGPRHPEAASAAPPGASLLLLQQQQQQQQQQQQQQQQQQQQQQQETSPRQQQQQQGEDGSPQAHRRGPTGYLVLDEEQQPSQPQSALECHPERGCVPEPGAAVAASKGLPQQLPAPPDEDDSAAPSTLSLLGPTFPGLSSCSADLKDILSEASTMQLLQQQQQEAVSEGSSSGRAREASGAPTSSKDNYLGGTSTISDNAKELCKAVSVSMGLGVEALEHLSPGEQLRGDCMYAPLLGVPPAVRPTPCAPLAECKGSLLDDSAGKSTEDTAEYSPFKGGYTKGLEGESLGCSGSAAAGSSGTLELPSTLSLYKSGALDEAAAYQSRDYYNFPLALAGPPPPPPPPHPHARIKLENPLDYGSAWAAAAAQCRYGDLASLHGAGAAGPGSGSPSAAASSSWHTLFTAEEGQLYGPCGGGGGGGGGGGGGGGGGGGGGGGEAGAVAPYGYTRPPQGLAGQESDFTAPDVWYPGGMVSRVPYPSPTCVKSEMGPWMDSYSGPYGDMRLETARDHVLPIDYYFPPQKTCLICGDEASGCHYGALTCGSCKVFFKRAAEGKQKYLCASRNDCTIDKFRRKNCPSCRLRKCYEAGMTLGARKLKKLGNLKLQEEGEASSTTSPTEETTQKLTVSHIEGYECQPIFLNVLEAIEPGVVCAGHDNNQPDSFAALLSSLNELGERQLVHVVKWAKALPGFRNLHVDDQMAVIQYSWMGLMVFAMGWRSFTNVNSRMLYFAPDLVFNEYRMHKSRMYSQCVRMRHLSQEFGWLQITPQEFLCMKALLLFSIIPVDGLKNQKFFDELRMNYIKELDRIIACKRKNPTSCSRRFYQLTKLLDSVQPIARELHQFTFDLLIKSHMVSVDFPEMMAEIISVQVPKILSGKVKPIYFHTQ
Format: cell-based

| Structure (SMILES) | IC50 |
| --- | --- |
| O=S(=O)(Nc1ccc(Oc2ccccc2)cc1)c1cccc(C(F)(F)F)c1 | 5300 nM |
